The values that follow come from patent publication US11667602B2, “Compounds and their use” (AstraZeneca AB, priority 2020, dated 2023).

The experiment deals with T1, human RXFP1 (Homo sapiens, UniProt Q9HBX9).
T1 sequence (Q9HBX9 1-757): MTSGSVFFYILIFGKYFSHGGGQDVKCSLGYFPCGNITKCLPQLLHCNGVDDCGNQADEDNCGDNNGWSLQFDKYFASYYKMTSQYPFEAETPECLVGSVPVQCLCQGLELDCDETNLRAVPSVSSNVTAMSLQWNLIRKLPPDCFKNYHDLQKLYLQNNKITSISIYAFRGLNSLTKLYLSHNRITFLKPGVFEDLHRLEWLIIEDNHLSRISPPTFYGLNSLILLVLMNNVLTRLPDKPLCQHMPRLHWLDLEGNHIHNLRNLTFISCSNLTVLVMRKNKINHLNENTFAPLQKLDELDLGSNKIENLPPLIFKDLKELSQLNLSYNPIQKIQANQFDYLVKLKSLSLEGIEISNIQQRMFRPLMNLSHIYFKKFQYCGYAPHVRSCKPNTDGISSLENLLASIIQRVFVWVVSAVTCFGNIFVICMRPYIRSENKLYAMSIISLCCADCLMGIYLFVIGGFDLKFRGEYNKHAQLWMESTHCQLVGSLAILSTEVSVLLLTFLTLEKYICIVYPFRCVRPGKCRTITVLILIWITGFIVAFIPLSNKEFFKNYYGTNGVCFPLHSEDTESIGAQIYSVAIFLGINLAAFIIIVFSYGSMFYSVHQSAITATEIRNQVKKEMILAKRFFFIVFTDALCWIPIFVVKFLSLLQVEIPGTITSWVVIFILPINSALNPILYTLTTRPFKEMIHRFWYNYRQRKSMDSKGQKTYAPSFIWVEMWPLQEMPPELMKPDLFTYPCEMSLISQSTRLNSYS
Description: RXFP1 Hu cAMP (Test A). It counts as cell-based. Also noted: expressed in transfected cells; host or cells: Jump-In T-REx CHO-K1 cells (ThermoFisher), induced with 10 ng/ml doxycycline for 24 h. Particulars: RXFP1 Hu cAMP; for EC50: read-out: Test A EC50. From the text:
To screen for modulators of hRXFP1, an assay identifying compounds that stimulate cAMP production via the Gs-coupled hRXFP1 receptor was used. cAMP HiRange HTRF kit (available from CisBio Bioassays, France; catalogue number 62AM6PEJ) was employed in large according to manufacturer's recommendations for detection of cAMP. The HTRF method is a competitive immunoassay between native cAMP produced by cells and cAMP labeled with the dye d2. The tracer binding is visualized with a cryptate labeled antibody for cAMP and the signal is thus inversely proportional to the amount of produced cAMP.
Cells: Jump-In™ T-REx™ CHO-K1 Cells (ThermoFisher) stably transfected with human RXFP1 was employed. Cells were induced to express human RXFP1 by treatment with 10 ng/ml doxycycline for 24 h. Cells were then cryopreserved for long term storage.
HTRF detection reagents: cAMP-d2 and anti-cAMP cryptate reconstituted according to CisBio instructions were diluted 1:40 in lysis buffer provided with the HTRF-kit.
3. 4 μL assay buffer with 1 mM IBMX (0.5 mM final concentration) to block phosphodiesterases was added with Multidrop Combi (ThermoFisher).
6. 4 μL cAMP-d2 in lysis buffer was added with Multidrop Combi.
7. 4 μL anti-cAMP cryptate in lysis buffer was added with Multidrop Combi
8. 2 h incubation at room temperature
Using a cAMP standard curve, HTRF data was converted to amount cAMP produced in the samples which was subsequentially used for calculation of concentration responses. Concentration response data were fitted with a four parameter logistic fit, the Hill equation. The results from the assay are reported in Table 36 as EC50 (μM) and Sinf (%).
Where the assay was run multiple times for the same compound, the geometric mean is reported.
Sinf is the fitted activity level, efficacy, at infinite concentration of test compound. To facilitate comparison of efficacy data, efficacy was normalized to % effect of the response stimulated by a saturating concentration of relaxin (1 nM). Where the assay was run multiple times for the same compound, the arithmetic mean is reported.

Bounds are passed on as bounds.

For the compound `COc1cc(F)c(-c2cc(C(=O)O)cs2)cc1C(=O)N[C@H]1[C@@H](C(=O)Nc2cccc(S(=O)(=O)C(F)(F)F)c2)[C@@H]2C=C[C@H]1C2` (racemic) [Example 284, rac-5-(2-Fluoro-4-methoxy-5-(((1R,2R,3S,4S)-3-((3-((trifluoromethyl)sulfonyl)phenyl)carbamoyl)bicyclo[2.2.1]hept-5-en-2-yl)carbamoyl)phenyl)thiophene-3-carboxylic acid], the “Test A Sinf” value amounted to 85% and the half-maximal effective concentration (EC50) (in general, the concentration at which the effect is half-maximal) came to 820 nM.
The like results for `COc1cc(C#N)c(O[C@H]2CC[C@@](C)(C(=O)O)CC2)cc1C(=O)N[C@@H]1[C@H]2CC[C@H](C2)[C@@H]1C(=O)NC[C@H]1C[C@@H](C)C1` [Example 124] were, in that order, 101% and 160 nM.
Consider “(1R,4s)-4-(2-fluoro-5-(((1S*,2S*,3R*,4R*)-3-((4-fluoro-3-(pentafluoro-λ6-sulfaneyl)phenyl)carbamoyl)bicyclo[2.2.1]heptan-2-yl)carbamoyl)-4-methoxyphenoxy)-1-methylcyclohexane-1-carboxylic acid [Example 521]”, for which the “Test A Sinf” value was 99%.
For `COc1cc(F)c(O[C@H]2CC[C@@](C)(C(=O)O)CC2)cc1C(=O)N[C@H]1[C@@H](C(=O)NCC2(C)CCC2)[C@H]2C=C[C@@H]1CC2` (racemic) [Example 471, (1R,4s)-4-(2-Fluoro-4-methoxy-5-(((1RS,2SR,3RS,4SR)-3-(((1-methylcyclobutyl)methyl)carbamoyl)bicyclo[2.2.2]oct-5-en-2-yl)carbamoyl)phenoxy)-1-methylcyclohexane-1-carboxylic acid], the “Test A Sinf” value is given as 95% and the EC50 was 91 nM.
With `COc1cc(C#N)c(O[C@H]2CC[C@@](C)(C(=O)O)CC2)cc1C(=O)NC1CCC1C(=O)NCC1(C)CCC1` (single isomer, unassigned) [Example 572, (1R,4s)-4-(2-Cyano-4-methoxy-5-(((1S*,2R*)-2-(((1-methylcyclobutyl)methyl)carbamoyl)cyclobutyl)carbamoyl)phenoxy)-1-methylcyclohexane-1-carboxylic acid], the half-maximal effective concentration (EC50) is greater than 40000 nM.
Take `COc1cc(F)c(OC2CCC(C)(C(=O)O)CC2)cc1C(=O)NC1COCC1C(=O)NCC1(C)CCC1` [Example 576, (1R,4s)-4-(2-Fluoro-4-methoxy-5-(((3S*,4R*)-4-(((1-methylcyclobutyl)methyl)carbamoyl)tetrahydrofuran-3-yl)carbamoyl)phenoxy)-1-methylcyclohexane-1-carboxylic acid]: the “Test A Sinf” value was determined as 118%.
`COc1cc(C#N)c(O[C@H]2CC[C@@](C)(C(=O)O)CC2)cc1C(=O)N[C@@H]1[C@H]2CC[C@H](C2)[C@@H]1C(=O)NC1CCC(C)(C)CC1` [Example 128]: the “Test A Sinf” value was 88% and the concentration for a half-maximal effect (EC50) is 46 nM.
The matching figures for `COc1cc(F)c(OCCCCCCCCC(=O)O)cc1C(=O)N[C@@H]1[C@H]2CC[C@H](C2)[C@@H]1C(=O)Nc1cccc(S(=O)(=O)C(F)(F)F)c1` [Example 437]: 104% and 950 nM.
`COc1cc(C)c(O[C@H]2CC[C@@](C)(C(=O)O)CC2)cc1C(=O)N[C@@H]1[C@H]2CC[C@H](C2)[C@@H]1C(=O)NC12CC(F)(C1)C2` [Example 382]: the “Test A Sinf” value worked out at 90% and the EC50 worked out at 130 nM.
The matching figures for `COc1cc(F)c(O[C@H]2CC[C@@](C)(C(=O)O)CC2)cc1C(=O)NC1CCC1C(=O)Nc1ccc(F)c(S(F)(F)(F)(F)F)c1` (single isomer, unassigned) [Example 570, (1R,4s)-4-(2-Fluoro-5-(((1S*,2R*)-2-((4-fluoro-3-(pentafluoro-λ6-sulfaneyl)phenyl)carbamoyl)cyclobutyl)carbamoyl)-4-methoxyphenoxy)-1-methylcyclohexane-1-carboxylic acid]: 128% and 9200 nM.
Regarding `COc1cc(F)c(O[C@H]2CC[C@@](C)(C(=O)O)CC2)cc1C(=O)NC1COCCC1C(=O)Nc1cccc(S(=O)(=O)C(F)(F)F)c1` (single isomer, unassigned) [Example 558, (1R,4s)-4-(2-Fluoro-4-methoxy-5-(((3S*,4S*)-4-((3-((trifluoromethyl)sulfonyl)phenyl)carbamoyl)tetrahydro-2H-pyran-3-yl)carbamoyl)phenoxy)-1-methylcyclohexane-1-carboxylic acid], the 50% effective concentration (EC50) was greater than 40000 nM.
Consider `COc1cc(F)c(O[C@H]2CC[C@@](C)(C(=O)O)CC2)cc1C(=O)N[C@@H]1[C@H]2CC[C@H](C2)[C@@H]1C(=O)N[C@H](C)C(C)(C)C#N` [Example 615], for which the “Test A Sinf” value is recorded as 100% and the concentration for a half-maximal effect (EC50) turned out to be 120 nM.
With “(1R,4s)-4-(2-Fluoro-4-methoxy-5-(((3S*,4R*)-4-(((1-methylcyclobutyl)methyl)carbamoyl)tetrahydrofuran-3-yl)carbamoyl)phenoxy)-1-(hydroxymethyl)cyclohexane-1-carboxylic acid [Example 581]”, the “Test A Sinf” value was 94%.
Same read-out and setting: next, `CC1(CNC(=O)[C@H]2[C@@H]3CC[C@@H](C3)[C@H]2NC(=O)c2cc(O[C@H]3CC[C@@](C)(C(=O)O)CC3)c(F)cc2C#N)CCC1` [Example 377]: 100%.
In the case of `COc1cc(C#N)c(O[C@H]2CC[C@@](C)(C(=O)O)CC2)cc1C(=O)N[C@@H]1CC[C@@H]1C(=O)NCC1(C)CCC1` (racemic) [Example 348], the “Test A Sinf” value is recorded as 101% and the 50% effective concentration (EC50) came out at 560 nM.
Consider “(1R,4s)-4-(2-Fluoro-4-methoxy-5-(((1S*,2R*,4R*)-4-methoxy-2-(neopentylcarbamoyl)cyclopentyl)carbamoyl)phenoxy)-1-methylcyclohexane-1-carboxylic acid [Example 547]”, for which the “Test A Sinf” value was 114%.
Take `COc1cc(F)c(O[C@H]2CC[C@@H](S(N)(=O)=O)CC2)cc1C(=O)N[C@@H]1[C@@H]2CC[C@@H](C2)[C@@H]1C(=O)Nc1cccc(S(=O)(=O)C(F)(F)F)c1` [Example 463, (1S,2S,3R,4R)-3-(4-Fluoro-2-methoxy-5-(((1s,4S)-4-sulfamoylcyclohexyl)oxy)benzamido)-N-(3-((trifluoromethyl)sulfonyl)phenyl)bicyclo[2.2.1]heptane-2-carboxamide]: the “Test A Sinf” value is 111% and the concentration for a half-maximal effect (EC50) stood at 340 nM.
Turning to `COc1cc(F)c(O[C@H]2CC[C@@](O)(C(=O)O)CC2)cc1C(=O)N[C@@H]1[C@@H]2CC[C@@H](C2)[C@@H]1C(=O)Nc1cccc(S(=O)(=O)C(F)(F)F)c1` (racemic) [Example 422, (1R,4r)-4-(2-Fluoro-4-methoxy-5-(((1RS,2RS,3SR,4SR)-3-((3-((trifluoromethyl)sulfonyl)phenyl)carbamoyl)bicyclo[2.2.1]heptan-2-yl)carbamoyl)phenoxy)-1-hydroxycyclohexane-1-carboxylic acid], the “Test A Sinf” value amounted to 102% and the EC50 was found to be 86 nM.
For the compound `COc1cc(F)c(O[C@H]2CC[C@@](CO)(C(=O)O)CC2)cc1C(=O)NC1COCC1C(=O)NCC(C)(C)C` (single isomer, unassigned) [Example 578, (1R,4s)-4-(2-Fluoro-4-methoxy-5-(((3S*,4R*)-4-(neopentylcarbamoyl)tetrahydrofuran-3-yl)carbamoyl)phenoxy)-1-(hydroxymethyl)cyclohexane-1-carboxylic acid], the EC50 was greater than 40000 nM.
As to `COc1cc(F)c(-c2cccc(C(=O)O)c2)cc1C(=O)N[C@@H]1CCC[C@@H]1C(=O)Nc1cccc(S(=O)(=O)C(F)(F)F)c1` (racemic) [Example 300], the “Test A Sinf” value is 78% and the EC50 worked out at 3900 nM.
